In patent US20070298111A1, “Fine Particle-Containing Composition and Manufacturing Method Therefor” (EISAI R&D MANAGEMENT CO., LTD., priority 2004, published 2007):

Experiments:
[1] = pharmacopoeia term; cited from earlier work
[2] = Solubility of glibenclamide in the presence of both α-CD and SDS; format: physicochemical; details: 3 days at room temperature
Procedure: To an aqueous solution (4 mL) containing α-CD and SDS was added glibenclamide (20 mg), which was stirred for 3 days at room temperature. This solution was filtered using a Millex-HV filter (Millipore) with a pore size of 0.45 μm, and the glibenclamide concentration in the filtrate was measured by HPLC using a Unison UK-C18 column (Imtakt).

SMILES | Solubility in water [1] | Solubility of glibenclamide relative to SDS concentration (FIG. 6) ([2]; α-CD added) | Solubility of glibenclamide relative to SDS concentration (FIG. 6) ([2]; α-CD concentration 0.0 mM)
COc1ccc(Cl)cc1C(=O)NCCc1ccc(S(=O)(=O)NC(=O)NC2CCCCC2)cc1 [glibenclamide, 4-[2-(5-Chloro-2-methoxybenzoylamino)ethyl](N-cyclohexylcarbamoyl)benzene-sulfonaide] | practically insoluble in water | a bending point appeared indicating minimum solubility | solubility rose as the SDS concentration rose
CC(=O)S[C@@H]1CC2=CC(=O)CC[C@]2(C)[C@H]2CC[C@@]3(C)[C@@H](CC[C@@]34CCC(=O)O4)[C@H]12 [spironolactone, 7α-acetylsulfanyl-3-oxo-17α-pregn-4-ene-21,17β-carbolactone] | practically insoluble in water |  | 
Cc1cccc(Nc2ccccc2C(=O)O)c1C [mefenamic acid, 2-(2,3-dimethylphenylamino)benzoic acid] | practically insoluble in water |  | 
